Laboratory results published in patent US20110269811A1, “INHIBITORS OF SEMICARBAZIDE-SENSITIVE AMINE OXIDASE (SSAO) AND VAP-1 MEDIATED ADHESION USEFUL FOR TREATMENT AND PREVENTION OF DISEASES” (priority 2006, published 2011).

Assays:
M1 (h) = target: T1, M1 (h) (Homo sapiens, UniProt P11229); experiment: Receptor binding screen, [^3H]pirenzepine; settings: 10 uM Concentration of Compound I-1-Z; read-out: Mean Value, percent inhibition of control specific binding: M1 (h)
T1 construct: expressed in transfected cells; host or cells: CHO cells
Procedure: For Table 4 below, the specific ligand binding to the receptors is defined as the difference between the total binding and the nonspecific binding determined in the presence of an excess of unlabelled ligand. The results are expressed as a percent inhibition of control specific binding obtained in the presence of Compound I-1-Z. The IC50 values (concentration causing a half-maximal inhibition of control specific binding) and Hill coefficients (nH) were determined by non-linear regression analysis of the competition curves using Hill equation curve fitting. The inhibition constants (Ki) were calculated from the Cheng Prusoff equation (Ki=IC50/(1+(L/KD)), where L=concentration of radioligand in the assay, and KD=affinity of the radioligand for the receptor). In each experiment, the respective reference compound was tested concurrently with Compound I-1-Z in order to assess the assay suitability.

[1] = test system: carrageenan-induced paw edema; experiment: Carrageenan-induced rat paw edema; format: in vivo, Sprague Dawley rats; settings: for paw swelling: 50 mg/kg orally 60 min prior to carrageenan
Text: Carrageenan-induced paw edema has been extensively used in the evaluation of anti-inflammatory effects of various therapeutic agents and is a useful experimental system for assessing the efficacy of compounds to alleviate acute inflammation (Whiteley P E and Dalrymple S A, 1998. Models of inflammation: carrageenan-induced paw edema in the rat, in Current Protocols in Pharmacology. Enna S J, Williams M, Ferkany J W, Kenaki T, Porsolt R E and Sullivan J P, eds., pp 5.4.1-5.4.3, John Wiley & Sons, New York). The full development of the edema is neutrophil-dependent (Salvemini D. et al. (1996) Br. J. Pharmacol. 118: 829).
Female Sprague Dawley rats were used in groups of 8-12 and compounds of the invention were administered orally at up to 50 mg/kg 60 min prior to carrageenan exposure. The control group was administered orally an equal volume of vehicle (PBS). Edema in the paws was induced as previously described by injecting 50 μL of a 0.5% solution of carrageenan (Type IV Lambda, Sigma) in saline with a 27-G needle s.c. in the right foot pad. (See Whiteley P. E. and Dalrymple S. A. (1998), Models of inflammation: carrageenan-induced paw edema in the rat, in Current Protocols in Pharmacology, Enna S J, Williams M, Ferkany J W, Kenaki T, Porsolt R E and Sullivan J P, eds., pp 5.4.1-5.4.3, John Wiley & Sons, New York) The size of the tested foot of each animal was measured volumetrically with a plethysmometer immediately after injection of carrageenan solution and at various times up to 360 min after carrageenan induction.
Results of experiments with the compounds II-1-E, I-1-Z, and I-2-Z are shown in FIG. 1, FIG. 5, and FIG. 6, respectively.
Using the same procedure discussed above, the size of the foot of each animal was measured volumetrically before induction of edema, and at 1.5, 3, 4.5 and 6 h after the carrageenan injection. The absolute decreases in paw swelling at 6 h with 1, 10 and 50 mg/kg were 5±11%, 20±9% and 32±6% respectively. Statistical analyses were performed with repeated measures ANOVA followed by Dunnett's test for multiple comparisons.
Paw edema was induced in groups of eight Sprague Dawley rats by injecting 50 μL of a 0.375% solution of carrageenan X in saline, subcutaneously in the foot. After one hour animals were orally dosed once with PBS, compound I-1-Z at 50 mg/kg or with indomethacin at 3 mg/kg. The size of the paws were measured before induction of edema (baseline), and at 1.5, 3, 4.5 and 6 h after carrageenan injection. […] Statistical analyses were performed with repeated measures ANOVA followed by Dunnett's test for multiple comparisons.
Groups of eight Sprague Dawley rats were orally administered PBS, or 0.01, 0.1 or 1 mg/kg of compound I-1-Z. One hour later paw edema was induced in all animals by injecting 50 μL of a 0.5% solution of carrageenan X in saline, subcutaneously into the footpad. The size of the foot of each animal was measured volumetrically before induction of edema, and at 1.5, 3, 4.5 and 6 h after the carrageenan injection. The absolute decreases in paw swelling at 6 h with 0.1 and 1 mg/kg were 34±8 and 29±8% respectively. Statistical analyses were performed with repeated measures ANOVA followed by Dunnett's test for multiple comparisons.

M5 (h) = target: T2, M5 (h) (Homo sapiens, UniProt P08912); experiment: Receptor binding screen, [^3H]4-DAMP; settings: 10 uM Concentration of Compound I-1-Z; read-out: Mean Value, percent inhibition of control specific binding: M5 (h)
T2 construct: expressed in transfected cells; host or cells: CHO cells

5-HT3 (h) = target: T3, 5-HT3 (h) (Homo sapiens, UniProt P46098); experiment: Receptor binding screen, [^3H]BRL 43694; settings: 10 uM Concentration of Compound I-1-Z; read-out: Mean Value, percent inhibition of control specific binding: 5-HT3 (h)
T3 construct: expressed in transfected cells; host or cells: CHO cells

TNF-α (h) = experiment: Receptor binding screen, [^125I]TNF-α, U-937 cells; parameters: species or system human; settings: 10 uM Concentration of Compound I-1-Z
D5 (h) = target: T4, D5 (h) (Homo sapiens, UniProt P21918); experiment: Receptor binding screen, [^3H]SCH 23390; settings: 10 uM Concentration of Compound I-1-Z; read-out: Mean Value, percent inhibition of control specific binding: D5 (h)
T4 construct: expressed in transfected cells; host or cells: GH4 cells

Y1 (h) = target: T5, Y1 (h) (Homo sapiens, UniProt P25929); experiment: Receptor binding screen, [^125I]peptide YY, SK-N-MC cells; settings: 10 uM Concentration of Compound I-1-Z; read-out: Mean Value, percent inhibition of control specific binding: Y1 (h)
T5 construct: SK-N-MC cells; endogenous in cells; host or cells: SK-N-MC cells

PCP = experiment: Receptor binding screen, [^3H]TCP; parameters: species or system rat; settings: 10 uM Concentration of Compound I-1-Z
rat lung SSAO = target: T6, rat lung SSAO (Rattus norvegicus, UniProt O08590); experiment: ED50 for rat lung SSAO after oral administration; format: in vivo, Sprague Dawley rats; settings: lungs excised 1, 3, 6 or 24 h later, FIG. 11, read-out: ED50 for inhibition of rat lung SSAO activity
T6 construct: rat lung or human umbilical cord homogenates were prepared by chopping the freshly removed tissue; from tissue; host or cells: rat lung homogenate (1000 g supernatant)
Procedure: Groups of five Sprague Dawley rats were orally administered the indicated doses of compound I-1-Z. At 1, 3, 6 or 24 h later, the animals were sacrificed, lungs excised and SSAO activity in lung homogenates determined. Results are presented as percent inhibition of SSAO activity relative to animals that were administered PBS.

T5 sequence (P25929 whole entry): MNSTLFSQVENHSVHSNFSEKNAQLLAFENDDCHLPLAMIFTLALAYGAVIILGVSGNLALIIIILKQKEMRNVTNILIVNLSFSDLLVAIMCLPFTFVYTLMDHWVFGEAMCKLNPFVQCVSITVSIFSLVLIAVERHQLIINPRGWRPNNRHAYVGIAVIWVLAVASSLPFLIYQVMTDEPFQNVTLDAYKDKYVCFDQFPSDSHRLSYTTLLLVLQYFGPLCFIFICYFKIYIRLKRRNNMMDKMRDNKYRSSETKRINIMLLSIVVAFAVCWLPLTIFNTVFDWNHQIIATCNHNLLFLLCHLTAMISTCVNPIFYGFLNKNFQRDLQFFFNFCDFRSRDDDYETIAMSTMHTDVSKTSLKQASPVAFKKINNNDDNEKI
T1 sequence (P11229 whole entry): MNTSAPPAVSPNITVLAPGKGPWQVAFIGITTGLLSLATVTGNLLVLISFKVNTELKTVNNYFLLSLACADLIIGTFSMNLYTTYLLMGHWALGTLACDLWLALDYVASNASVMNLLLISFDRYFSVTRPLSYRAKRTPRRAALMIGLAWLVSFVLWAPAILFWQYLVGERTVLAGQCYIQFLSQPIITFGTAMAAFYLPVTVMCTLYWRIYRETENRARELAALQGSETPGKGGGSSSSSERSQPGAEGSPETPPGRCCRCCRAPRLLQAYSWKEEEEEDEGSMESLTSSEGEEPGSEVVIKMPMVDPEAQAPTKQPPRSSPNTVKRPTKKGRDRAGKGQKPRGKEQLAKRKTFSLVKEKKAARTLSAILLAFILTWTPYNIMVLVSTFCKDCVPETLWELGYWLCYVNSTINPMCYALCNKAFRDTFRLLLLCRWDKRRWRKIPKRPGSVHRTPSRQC
T3 sequence (P46098 24-478): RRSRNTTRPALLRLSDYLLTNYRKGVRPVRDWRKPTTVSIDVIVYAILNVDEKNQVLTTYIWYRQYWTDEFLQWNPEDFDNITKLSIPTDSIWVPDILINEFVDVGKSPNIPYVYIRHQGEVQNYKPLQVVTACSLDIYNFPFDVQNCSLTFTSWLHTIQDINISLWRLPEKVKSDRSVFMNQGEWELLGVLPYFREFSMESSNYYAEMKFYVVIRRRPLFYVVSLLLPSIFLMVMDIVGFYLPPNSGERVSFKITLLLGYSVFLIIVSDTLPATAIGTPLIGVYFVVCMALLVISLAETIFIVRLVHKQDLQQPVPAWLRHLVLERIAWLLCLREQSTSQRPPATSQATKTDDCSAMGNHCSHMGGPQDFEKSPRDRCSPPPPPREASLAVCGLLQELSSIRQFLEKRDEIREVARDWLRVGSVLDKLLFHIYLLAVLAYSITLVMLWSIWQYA
T6 sequence (O08590 whole entry): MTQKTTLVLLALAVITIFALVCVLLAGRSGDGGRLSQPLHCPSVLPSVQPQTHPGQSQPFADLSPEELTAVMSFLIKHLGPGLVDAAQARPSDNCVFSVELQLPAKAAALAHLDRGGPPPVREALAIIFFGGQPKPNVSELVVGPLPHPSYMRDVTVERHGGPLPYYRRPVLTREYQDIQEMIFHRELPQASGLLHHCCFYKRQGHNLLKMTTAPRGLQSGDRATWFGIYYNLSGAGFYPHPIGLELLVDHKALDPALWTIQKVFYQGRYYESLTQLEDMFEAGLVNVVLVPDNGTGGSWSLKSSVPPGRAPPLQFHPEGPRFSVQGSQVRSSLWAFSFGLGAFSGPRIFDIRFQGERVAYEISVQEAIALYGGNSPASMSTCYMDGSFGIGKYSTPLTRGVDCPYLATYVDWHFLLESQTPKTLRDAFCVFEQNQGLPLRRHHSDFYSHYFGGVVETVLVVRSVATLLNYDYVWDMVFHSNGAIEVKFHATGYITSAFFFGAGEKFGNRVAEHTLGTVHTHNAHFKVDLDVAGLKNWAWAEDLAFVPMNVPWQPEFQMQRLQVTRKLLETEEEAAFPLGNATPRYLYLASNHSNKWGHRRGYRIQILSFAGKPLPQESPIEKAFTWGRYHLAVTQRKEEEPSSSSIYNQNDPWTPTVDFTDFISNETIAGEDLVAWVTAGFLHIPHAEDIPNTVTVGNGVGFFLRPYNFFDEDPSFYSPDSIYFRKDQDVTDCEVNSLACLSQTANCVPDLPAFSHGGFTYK
T2 sequence (P08912 whole entry): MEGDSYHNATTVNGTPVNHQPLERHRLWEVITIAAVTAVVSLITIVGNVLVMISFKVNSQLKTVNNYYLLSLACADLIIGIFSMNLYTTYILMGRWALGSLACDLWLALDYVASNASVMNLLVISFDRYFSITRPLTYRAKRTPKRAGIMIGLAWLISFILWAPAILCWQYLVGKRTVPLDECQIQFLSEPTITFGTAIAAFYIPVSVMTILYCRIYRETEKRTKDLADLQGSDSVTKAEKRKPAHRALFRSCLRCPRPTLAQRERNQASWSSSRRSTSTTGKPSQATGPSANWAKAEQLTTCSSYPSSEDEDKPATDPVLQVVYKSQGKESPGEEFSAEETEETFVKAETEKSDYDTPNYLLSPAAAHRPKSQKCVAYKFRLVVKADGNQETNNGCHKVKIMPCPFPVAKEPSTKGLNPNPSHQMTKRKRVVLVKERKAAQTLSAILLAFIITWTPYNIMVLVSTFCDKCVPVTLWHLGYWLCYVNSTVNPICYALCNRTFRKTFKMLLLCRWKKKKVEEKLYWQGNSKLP
T4 sequence (P21918 whole entry): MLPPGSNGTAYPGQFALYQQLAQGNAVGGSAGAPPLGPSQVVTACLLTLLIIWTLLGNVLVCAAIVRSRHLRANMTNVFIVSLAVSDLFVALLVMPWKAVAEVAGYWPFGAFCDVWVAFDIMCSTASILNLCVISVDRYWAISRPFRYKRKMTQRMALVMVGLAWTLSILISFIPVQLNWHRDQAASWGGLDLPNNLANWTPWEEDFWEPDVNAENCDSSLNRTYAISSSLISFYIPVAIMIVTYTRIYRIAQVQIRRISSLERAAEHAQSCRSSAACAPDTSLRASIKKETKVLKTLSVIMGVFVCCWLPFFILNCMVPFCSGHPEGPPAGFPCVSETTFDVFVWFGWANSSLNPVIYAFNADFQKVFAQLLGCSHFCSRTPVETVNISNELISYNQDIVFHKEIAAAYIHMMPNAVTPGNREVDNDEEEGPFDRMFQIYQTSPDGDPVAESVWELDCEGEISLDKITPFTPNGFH

| Compound | inhibition at 10 µM (M1 (h)) [%] | absolute decrease in paw swelling at 6 h ([1]; 0.1 mg/kg orally one hour before carrageenan, low doses, FIG. 13) [%] | absolute decrease in paw swelling at 6 h ([1]; 1 mg/kg orally one hour before carrageenan, low doses, FIG. 13) [%] | absolute decrease in paw swelling at 6 h ([1]; 1 mg/kg, dose response, FIG. 7) [%] | absolute decrease in paw swelling at 6 h ([1]; 10 mg/kg, dose response, FIG. 7) [%] | paw swelling ([1]; between 2-6 h) | absolute decrease in paw swelling at 6 h ([1]; 50 mg/kg, dose response, FIG. 7) [%] | inhibition of paw edema at 6 h ([1]; therapeutic dosing: 50 mg/kg orally one hour after 0.375% carrageenan, FIG. 8) [%] | inhibition at 10 µM (M5 (h)) [%] | inhibition at 10 µM (5-HT3 (h)) [%] | Mean Value, percent inhibition of control specific binding: TNF-α (h) (TNF-α (h)) [%] | inhibition at 10 µM (D5 (h)) [%] | inhibition at 10 µM (Y1 (h)) [%] | Mean Value, percent inhibition of control specific binding: PCP (PCP) [%] | ED50 (rat lung SSAO) [mg/kg] | paw swelling ([1]; between 3-6 h) |
| --- | --- | --- | --- | --- | --- | --- | --- | --- | --- | --- | --- | --- | --- | --- | --- | --- |
| COc1ccc(C/C(=C/F)CN)cc1.Cl [Compound I-1-Z, (Z)-3-Fluoro-2-(4-methoxybenzyl)-allylamine hydrochloride] | 28 | 34±8 | 29±8 | 5±11 | 20±9 | clearly reduced the paw swelling | 32±6 | 50±4 | 27 | 4 | −6 | -10 | -2 | −12 | 0.1 to 1 | – |
| CCOc1ccc(C/C(=C/F)CN)cc1.Cl [Compound I-2-Z, (Z)-3-Fluoro-2-(4-ethoxybenzyl)-allylamine hydrochloride] | – | – | – | – | – | – | – | – | – | – | – | – | – | – | – | clearly reduced the paw swelling |
| NC/C(F)=C\Cc1cc(F)cc(C(F)(F)F)c1 [II-1-E, (E)-2-Fluoro-4-(3-fluoro-5-trifluoromethylphenyl)-but-2-enylamine] | – | – | – | – | – | clearly reduced the paw swelling | – | – | – | – | – | – | – | – | – | – |
